# Reference: patent US8299074B2, “P38 MAP kinase inhibitors” (RespiVert Ltd., priority 2008, dated 2012)
# Where two headings read alike, the source gives them in different places.
# Assays:
# [1] = test system: U937 cells; test: LPS-induced TNF alpha release in U937 cells; type: cell-based
# Experimental: (§1) LPS-Induced TNF Alpha/IL-8 Release in U937 Cells: Potency U937 cells, human monocytic cell line, were differentiated to macrophage-type cells by incubation with phorbol myristate acetate (PMA; 100 ng/ml) for 48 to 72 hours. Cells were pre-incubated with final concentrations of compound for 2 hrs. […] Coli: O111:B4, Sigma) for 4 hrs, and the supernatant collected for determination of TNFα and IL-8 concentration by sandwich ELISA (Duo-set, R&D systems). […] The inhibition of IL-8 production was calculated at each concentration of test compound by comparison with vehicle control.
# [2] = test system: U937 cells; test: LPS-induced IL-8 release in U937 cells; type: cell-based; details: Homo sapiens, read-out: DU937 (LPS) IL-8 IC50
# Experimental: as §1
# [3] = test system: BEAS2B cells; test: Poly I:C-induced ICAM-1 induction in BEAS2B cells; type: cell-based; details: Homo sapiens, BEAS-2B, read-out: BEAS2B (polyIC) ICAM1 IC50
# Experimental: Poly I:C-Induced ICAM-1 Induction in BEAS2B Cells: Potency Poly I:C (1 ug/ml) (Invivogen Ltd., San Diego, Calif.) was transfected into BEAS2B cells (human bronchial epithelial cells, ATCC) with Oligofectamine (Invitrogen, Carlsbad, Calif.). Cells were pre-incubated with final concentrations of compound for 2 hrs. The level of ICAM1 expression on the cell surface was determined by cell-based ELISA. Briefly, at 18 hrs after poly I:C transfection, cells were fixed with 4% formaldehyde in PBS. After quenching endogenous peroxidase by adding 0.1% sodium azide and 1% hydrogen peroxide, cells were washed with wash-buffer (0.1% Tween in PBS: PBS-Tween). After blocking the wells with 5% milk in PBS-Tween for 1 hr, the cells were incubated with anti-human ICAM-1 antibody (Cell Signaling Technology, Danvers, Mass.) in 1% BSA PBS overnight at 4° C. Cells were washed with PBS-Tween and incubated with the secondary antibody (HRP-conjugated anti-rabbit IgG, Dako Ltd., Glostrup, Denmark). The ICAM-1 signal was detected by adding substrate and reading at 450 nm with a reference wavelength of 655 nm using a spectrophotometer. […] The measured OD 450-655 readings were corrected for cell number by dividing with the OD595 reading in each well.
# [4] = test system: Differentiated U937 cells; test: MTT assay (cell viability); type: cell-based, human
# Experimental: MTT Assay Differentiated U937 cells were pre-incubated with compound for 4 hrs in 5% FCS or 10% FCS for 24 hrs. […] After 1 hr incubation, the media were removed, 200 ul of DMSO added to each well and the plates were shaken lightly for 1 h prior to reading the absorbance at 550 nm. The percentage loss of cell viability was calculated for each well relative to vehicle (0.5% DMSO)-treatment. Consequently an apparent increase in cell viability for drug treatment relative to vehicle is tabulated as a negative percentage.
# [5] = molecular target: T1, p38 MAPK alpha (MAPK14) (Homo sapiens, UniProt Q16539); test: Enzyme inhibition assay, p38 MAPK alpha (FRET, Z-LYTE, via MAPKAP-K2); type: biochemical; details: read-out: Enzyme p38α IC50
# T1 construct: purchased Invitrogen
# T1 sequence (Q16539 whole entry): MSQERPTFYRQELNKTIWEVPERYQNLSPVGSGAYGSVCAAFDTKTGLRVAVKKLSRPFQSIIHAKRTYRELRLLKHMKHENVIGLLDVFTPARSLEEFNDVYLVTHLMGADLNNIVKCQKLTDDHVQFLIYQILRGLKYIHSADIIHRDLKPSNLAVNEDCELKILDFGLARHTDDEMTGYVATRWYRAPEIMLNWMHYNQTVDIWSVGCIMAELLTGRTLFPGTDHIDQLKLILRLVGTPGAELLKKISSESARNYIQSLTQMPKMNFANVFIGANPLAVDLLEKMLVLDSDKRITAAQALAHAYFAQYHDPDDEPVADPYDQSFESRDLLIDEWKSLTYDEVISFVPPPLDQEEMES
# [6] = test system: THP-1 cells; test: LPS-induced TNF alpha release in THP-1 cells; type: cell-based; details: Homo sapiens
# Experimental: LPS-Induced TNF Alpha Release in THP-1 Cells: Potency […] Coli; O111:B4, Sigma) for 4 hr and the supernatant collected for determination of TNFα concentration by sandwich ELISA (Duo-set, R&D systems). The inhibition of TNFα production was calculated at each concentration by comparison with vehicle control.
# [7] = Homo sapiens; read-out: DU937 (LPS) TNFα REC50
# [8] = Table 2, loss of cell viability at 1 μg/ml
# [9] = THP-1, Table 2, read-out: THP-1 (LPS) TNFα IC50
# [10] = Homo sapiens, read-out: DU937 (LPS) TNFα REC50
# [11] = Table 3, first MTT column, loss of cell viability at 1 μg/ml
# [12] = Table 3, second MTT column, loss of cell viability at 1 μg/ml
# [13] = THP-1, read-out: THP-1 (LPS) TNFα IC50
# [14] = THP-1, Table 3, read-out: THP-1 (LPS) TNFα IC50
# [15] = Table 2, loss of cell viability, test conducted at 10 μg/ml
"EC50 [1, 7]",IC50 ([2]; Table 2),"IC50 [6, 9]",Structure (SMILES),IC50 ([3]; Table 2),"DU937 (cell viability) MTT assay 4 h [4, 8]","DU937 (cell viability) MTT assay 24 h [4, 8]","DU937 (cell viability) MTT assay 4 h [4, 11]","DU937 (cell viability) MTT assay 4 h [4, 12]","DU937 (cell viability) MTT assay 4 h [4, 15]","DU937 (cell viability) MTT assay 24 h [4, 15]",further results
< 10 nM,< 10 nM,< 5000 nM,"COCC(=O)Nc1cc(Oc2ccc(NC(=O)Nc3cc(C(C)(C)C)nn3-c3ccc(C)cc3)c3ccccc23)ccn1 [Example 8, N-(4-(4-(3-(3-tert-Butyl-1-p-tolyl-1H-pyrazol-5-yl)ureido)naphthalen-1-yloxy)pyridin-2-yl)-2-methoxyacetamide]",< 10 nM,− (<=30%),+ (>30%),–,–,–,–,–
< 10 nM,–,–,"Cc1ccc(-n2nc(C(C)(C)C)cc2NC(=O)Nc2ccc(Oc3ccnc(NC(=O)NC4CC4)c3)c3ccccc23)cc1 [Example 33, 1-(4-((2-(3-Cyclopropylureido)pyridin-4-yl)oxy)naphthalen-1-yl)-3-(3-(tert-butyl)-1-(p-tolyl)-1H-pyrazol-5-yl)urea]",–,–,–,− (<=30%),− (<=30%),–,–,"IC50 ([3]; Table 3): < 5000 nM; IC50 ([5]; Table 3): < 5000 nM; IC50 [6, 14]: < 10 nM"
< 10 nM,–,–,"Cc1ccc(-n2nc(C(C)(C)C)cc2NC(=O)Nc2ccc(Oc3ccnc(NC(=O)NC4CC4)n3)c3ccccc23)cc1 [Example 69, 1-Cyclopropyl-3-(4-(4-(3-(3-tert-butyl-1-p-tolyl-1H-pyrazol-5-yl)ureido)naphthalen-1-yloxy)pyrimidin-2-yl)urea]",–,–,–,–,–,–,–,"IC50 ([2]; Table 1): < 10 nM; DU937 (cell viability) MTT assay 4 h ([4]; Table 1, MTT, loss of cell viability at 1 μg/ml): − (<=30%); DU937 (cell viability) MTT assay 4 h ([4]; Table 1, first MTT column, loss of cell viability at 1 μg/ml): − (<=30%); IC50 ([5]; Table 1): < 10 nM; IC50 ([6]; THP-1, Table 1, read-out: THP-1 (LPS) TNFα IC50): < 5000 nM"
< 5000 nM,–,–,"Cc1ccc(-n2nc(C(C)(C)C)cc2NC(=O)Nc2ccc(Oc3ccnc(NC(=O)NC4CCN(S(C)(=O)=O)CC4)c3)c3ccccc23)cc1 [Example 41, N-Methylsulfonyl-4-(3-(4-(4-(3-(3-tert-butyl-1-p-tolyl-1H-pyrazol-5-yl)ureido)naphthalen-1-yloxy)pyridin-2-yl)ureido)piperidine]",–,–,–,− (<=30%),+ (>30%),–,–,"IC50 ([2]; Table 3): < 5000 nM; IC50 ([5]; Table 3): < 10 nM; IC50 [6, 14]: < 10 nM"
< 10 nM,< 10 nM,< 10 nM,"COCCC(=O)Nc1cc(Oc2ccc(NC(=O)Nc3cc(C(C)(C)C)nn3-c3ccc(C)cc3)c3ccccc23)ccn1 [Example 4, N-(4-(4-(3-(3-tert-Butyl-1-p-tolyl-1H-pyrazol-5-yl)ureido)naphthalen-1-yloxy)pyridin-2-yl)-3-methoxypropanamide]",< 10 nM,–,–,–,–,−^$ (<=30%),+^$ (>30%),–
< 5000 nM,< 10 nM,< 10 nM,"CSCC(=O)Nc1cc(Oc2ccc(NC(=O)Nc3cc(C(C)(C)C)nn3-c3ccc(C)cc3)c3ccccc23)ccn1 [Example 3, N-(4-(4-(3-(3-tert-Butyl-1-p-tolyl-1H-pyrazol-5-yl)ureido)naphthalen-1-yloxy)pyridin-2-yl)-2-(methylthio)acetamide]",< 5000 nM,–,–,–,–,−^$ (<=30%),+^$ (>30%),–
< 5000 nM,< 10 nM,< 10 nM,"Cc1ccc(-n2nc(C(C)(C)C)cc2NC(=O)Nc2ccc(Oc3ccnc(NC(=O)C4CCOCC4)c3)c3ccccc23)cc1 [Example 2, N-(4-(4-(3-(3-tert-Butyl-1-p-tolyl-1H-pyrazol-5-yl)ureido)naphthalen-1-yloxy)pyridin-2-yl)tetrahydro-2H-pyran-4-carboxamide]",< 10 nM,–,–,–,–,−^$ (<=30%),+^$ (>30%),–

# The next lines start with the compound.
Structure (SMILES),"EC50 [1, 7]",IC50 ([2]; Table 2),"IC50 [6, 9]",IC50 ([3]; Table 2),"DU937 (cell viability) MTT assay 4 h [4, 8]","DU937 (cell viability) MTT assay 24 h [4, 8]","DU937 (cell viability) MTT assay 4 h [4, 11]","DU937 (cell viability) MTT assay 4 h [4, 12]","DU937 (cell viability) MTT assay 4 h [4, 15]","DU937 (cell viability) MTT assay 24 h [4, 15]",further results
"COCC(=O)Nc1cc(Oc2ccc(NC(=O)Nc3cc(C(C)(C)C)nn3-c3ccc(C)cc3)cc2)ccn1 [Example 22, N-(4-(4-(3-(3-tert-Butyl-1-p-tolyl-1H-pyrazol-5-yl)ureido)phenoxy)pyridin-2-yl)-2-methoxyacetamide]",< 10 nM,< 10 nM,< 10 nM,< 5000 nM,− (<=30%),+ (>30%),–,–,–,–,IC50 ([5]; Table 2): < 5000 nM
"COCCOCC(=O)N1CCC(NC(=O)Nc2cc(Oc3ccc(NC(=O)Nc4cc(C(C)(C)C)nn4-c4ccc(C)cc4)c4ccccc34)ccn2)CC1 [Example 40, 2-(2-Methoxyethoxy)-1-(4-(3-(4-(4-(3-(3-tert-butyl-1-p-tolyl-1H-pyrazol-5-yl)ureido)naphthalen-1-yloxy)pyridin-2-yl)ureido)piperidin-1-yl)ethanone]",–,–,–,–,–,–,− (<=30%),+ (>30%),–,–,"EC50 [1, 10]: < 10 nM; IC50 [2]: < 10 nM; IC50 [3]: < 10 nM; IC50 [6, 13]: < 10 nM"
"Cc1ccc(-n2nc(C(C)(C)C)cc2NC(=O)Nc2ccc(Oc3ccnc(NC(=O)NCC(=O)N4CCOCC4)c3)c3ccccc23)cc1 [Example 58, 2-(3-(4-(4-(3-(3-tert-Butyl-1-p-tolyl-1H-pyrazol-5-yl)ureido)naphthalen-1-yloxy)pyridin-2-yl)ureido)acetyl morpholine]",–,–,–,–,–,–,− (<=30%),− (<=30%),–,–,"IC50 ([2]; Table 3): < 10 nM; IC50 ([3]; Table 3): < 10 nM; IC50 ([5]; Table 3): < 10 nM; IC50 [6, 14]: < 10 nM"
"COCCOCC(=O)Nc1cc(Oc2ccc(NC(=O)Nc3cc(C(C)(C)C)nn3-c3ccc(C)cc3)c3ccccc23)ccn1 [Example 1, N-(4-(4-(3-(3-tert-Butyl-1-p-tolyl-1H-pyrazol-5-yl)ureido)naphthalen-1-yloxy)pyridin-2-yl)-2-(2-methoxyethoxy)acetamide]",–,–,–,–,–,–,–,–,−^$ (<=30%),+^$ (>30%),"EC50 [1, 10]: < 10 nM; IC50 [2]: < 5000 nM; IC50 [3]: < 5000 nM; IC50 [6, 13]: < 10 nM"
"COCC(=O)Nc1cc(Oc2ccc(NC(=O)Nc3cc(C(C)(C)C)nn3-c3ccc(C)cc3)c(C)c2)ccn1 [Example 24, N-(4-(4-(3-(3-tert-Butyl-1-p-tolyl-1H-pyrazol-5-yl)ureido)-3-methylphenoxy)pyridin-2-yl)-2-methoxyacetamide]",< 10 nM,< 10 nM,< 10 nM,–,− (<=30%),+ (>30%),–,–,–,–,IC50 ([5]; Table 2): < 5000 nM
"[2H]c1c([2H])c(C([2H])([2H])[2H])c([2H])c([2H])c1-n1nc(C(C)(C)C)cc1NC(=O)Nc1ccc(Oc2ccnc(NC(=O)COC)c2)c2ccccc12 [Example 10, N-(4-(4-(3-(3-tert-butyl-1-(2,3,5,6-tetradeutero-4-(trideuteromethyl)phenyl)-1H-pyrazol-5-yl)ureido)naphthalen-1-yloxy)pyridin-2-yl)-2-methoxyacetamide]",< 10 nM,< 10 nM,< 10 nM,< 10 nM,− (<=30%),+ (>30%),–,–,–,–,–
